Measured values reported in PubChem BioAssay AID248 (DTP/NCI, 2004).
Where “and” joins values, the source holds several entries; their conditions need not be identical. Equal values may be shown once. Toxic doses and inconclusive results are not listed.

Test system: L1210 leukemia ip in BDF1 mice, survival T/C
Experiment: NCI In Vivo Anticancer Drug Screen. Data for tumor model L1210 Leukemia (intraperitoneal) in B6D2F1 (BDF1) mice
Details: endpoint: mean survival time, higher = longer survival
How it was run: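 Ratio derived from survival: compound-dosed mice over vehicle-dosed mice, all bearing a transplantable tumor.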

[1] = dose: 25.0 mg/kg/injection, schedule: Q01DX009 (ip), vehicle: Klucel (hydroxypropylcellulose) (HPC)
[2] = dose: 50.0 mg/kg/injection, schedule: Q01DX009 (ip), vehicle: Klucel (hydroxypropylcellulose) (HPC)
[3] = dose: 100.0 mg/kg/injection, schedule: Q04DX003 (ip), vehicle: Klucel (hydroxypropylcellulose) (HPC)
[4] = dose: 100.0 mg/kg/injection, schedule: Q01DX001 (ip), vehicle: saline
[5] = dose: 200.0 mg/kg/injection, schedule: Q01DX001 (ip), vehicle: saline
[6] = dose: 400.0 mg/kg/injection, schedule: Q01DX001 (ip), vehicle: saline

With Cc1nnc(NC(=O)C(Cl)(Cl)Cl)s1 the T/C (dose: 100.0 mg/kg/injection, schedule: Q01DX001 (ip), vehicle: other) was 94 % of control, the T/C (dose: 100.0 mg/kg/injection, schedule: Q04DX003 (ip), vehicle: other) was 96 % of control and the T/C (dose: 200.0 mg/kg/injection, schedule: Q01DX001 (ip), vehicle: other) was 105 % of control. The T/C (dose: 200.0 mg/kg/injection, schedule: Q04DX003 (ip), vehicle: other) was 109 % of control, the T/C (dose: 400.0 mg/kg/injection, schedule: Q01DX001 (ip), vehicle: other) was 104 % of control and the T/C (dose: 400.0 mg/kg/injection, schedule: Q04DX003 (ip), vehicle: other) was 96 % of control.

For O=C(NCc1ccco1)NCc1ccco1, the T/C [1] was 91 % of control, the T/C (dose: 25.0 mg/kg/injection, schedule: Q04DX003 (ip), vehicle: Klucel (hydroxypropylcellulose) (HPC)) was 103 % of control and the T/C [2] was 96 % of control. For the same molecule, the T/C (dose: 50.0 mg/kg/injection, schedule: Q04DX003 (ip), vehicle: Klucel (hydroxypropylcellulose) (HPC)) was 97 % of control and the T/C [3] was 98 % of control and 101 % of control.

Nc1[nH]c(=S)[nH]c(=O)c1NC=O was tested, and the T/C (dose: 16.0 mg/kg/injection, schedule: Q01DX Z (ip), vehicle: methylcellulose (MC)) was 103 % of control, the T/C (dose: 31.0 mg/kg/injection, schedule: Q01DX Z (ip), vehicle: methylcellulose (MC)) was 106 % of control and the T/C (dose: 62.0 mg/kg/injection, schedule: Q01DX Z (ip), vehicle: methylcellulose (MC)) was 108 % of control. The T/C (dose: 125.0 mg/kg/injection, schedule: Q01DX Z (ip), vehicle: methylcellulose (MC)) was 96 % of control and 97 % of control, the T/C (dose: 250.0 mg/kg/injection, schedule: Q01DX Z (ip), vehicle: methylcellulose (MC)) was 100 % of control and the T/C (dose: 500.0 mg/kg/injection, schedule: Q01DX Z (ip), vehicle: methylcellulose (MC)) was 112 % of control.

For Cc1cc(Cl)c2ccccc2c1N, the T/C (dose: 100.0 mg/kg/injection, schedule: Q01DX009 (ip), vehicle: saline with Tween-80) was 106 % of control, the T/C (dose: 100.0 mg/kg/injection, schedule: Q04DX003 (ip), vehicle: saline with Tween-80) was 104 % of control and the T/C (dose: 200.0 mg/kg/injection, schedule: Q01DX009 (ip), vehicle: saline with Tween-80) was 96 % of control. The T/C (dose: 200.0 mg/kg/injection, schedule: Q04DX003 (ip), vehicle: saline with Tween-80) was 102 % of control, the T/C (dose: 400.0 mg/kg/injection, schedule: Q01DX009 (ip), vehicle: saline with Tween-80) was 98 % of control and the T/C (dose: 400.0 mg/kg/injection, schedule: Q04DX003 (ip), vehicle: saline with Tween-80) was 100 % of control.

For Nc1c(Br)cccc1C(=O)O, the T/C [4] was 104 % of control, the T/C [5] was 102 % of control and the T/C [6] was 101 % of control.

In the case of CN1CCN=C1c1ccc(NC(=O)c2cccc(C(=O)Nc3ccc(C4=NCCN4C)cc3)c2)cc1, the T/C (dose: 1.88 mg/kg/injection, schedule: Q01DX Z (ip), vehicle: saline) is reported as 107 % of control, the T/C (dose: 3.75 mg/kg/injection, schedule: Q01DX Z (ip), vehicle: saline) is reported as 101 % of control and the T/C (dose: 7.5 mg/kg/injection, schedule: Q01DX Z (ip), vehicle: saline) is reported as 122 % of control. The T/C (dose: 30.0 mg/kg/injection, schedule: Q01DX Z (ip), vehicle: saline) was 154 % of control, the T/C (dose: 60.0 mg/kg/injection, schedule: Q01DX Z (ip), vehicle: saline) was 234 % of control and the T/C (dose: 120.0 mg/kg/injection, schedule: Q01DX Z (ip), vehicle: saline) was 171 % of control. The T/C (dose: 240.0 mg/kg/injection, schedule: Q01DX Z (ip), vehicle: saline) was 119 % of control and the T/C (dose: 480.0 mg/kg/injection, schedule: Q01DX Z (ip), vehicle: saline) was 106 % of control.

CCSC1C(OC(C)=O)C(C(CSC(C)=O)OC(C)=O)OC1n1cc(C)c(=O)[nH]c1=O (stereo unspecified) was tested, and the T/C (dose: 100.0 mg/kg/injection, schedule: Q01DX005 (ip), vehicle: saline) was 94 % of control and the T/C (dose: 200.0 mg/kg/injection, schedule: Q01DX005 (ip), vehicle: saline) was 98 % of control.

In the case of CC(=O)Nc1ccc(/C=N\Nc2ccccn2)cc1, the T/C [4] is reported as 89 % of control, the T/C [5] is reported as 100 % of control and the T/C [6] is reported as 93 % of control.

O=C1CC2C(=O)CC1C(C(=O)O)C2C(=O)O (stereo unspecified) was tested, and the T/C (dose: 75.0 mg/kg/injection, schedule: Q01DX001 (ip), vehicle: saline) was 102 % of control, the T/C (dose: 100.0 mg/kg/injection, schedule: Q01DX001 (ip), vehicle: Klucel (hydroxypropylcellulose) (HPC)) was 103 % of control and the T/C (dose: 150.0 mg/kg/injection, schedule: Q01DX001 (ip), vehicle: saline) was 104 % of control. For the same molecule, the T/C (dose: 200.0 mg/kg/injection, schedule: Q01DX001 (ip), vehicle: Klucel (hydroxypropylcellulose) (HPC)) was 119 % of control, the T/C (dose: 300.0 mg/kg/injection, schedule: Q01DX001 (ip), vehicle: saline) was 105 % of control and the T/C (dose: 400.0 mg/kg/injection, schedule: Q01DX001 (ip), vehicle: Klucel (hydroxypropylcellulose) (HPC)) was 98 % of control.

In the case of O=C(NC(CSC(c1ccccc1)c1ccccc1)C(=O)O)OCc1ccccc1 (stereo unspecified), the T/C [1] is reported as 103 % of control, the T/C [2] is reported as 100 % of control and the T/C (dose: 100.0 mg/kg/injection, schedule: Q01DX009 (ip), vehicle: Klucel (hydroxypropylcellulose) (HPC)) is reported as 100 % of control and 88 % of control. The T/C [3] was 93 % of control, the T/C (dose: 200.0 mg/kg/injection, schedule: Q04DX003 (ip), vehicle: Klucel (hydroxypropylcellulose) (HPC)) was 95 % of control and the T/C (dose: 400.0 mg/kg/injection, schedule: Q04DX003 (ip), vehicle: Klucel (hydroxypropylcellulose) (HPC)) was 89 % of control.
